We go through 12 molecules from patent US10947252B2, “Inhibitors of KEAP1-Nrf2 protein-protein interaction” (Janssen Pharmaceutica NV, priority 2018, dated 2021).

The subject of test [1] is Glo-Response ARE-luc2P HEK293 cell line. The test can be described thus: ARE luciferase reporter cell-based assay.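 Further: luciferase signal tracks Nrf2 activation of the ARE once compounds disrupt KEAP1-Nrf2 binding, read with One-Glo reagent, DMSO serving as low control.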 The following applies: Homo sapiens, HEK293, 24 h, average of results obtained. A general note: Reporter assays use an easily measured gene product as a stand-in for the process of interest.
In test [2] the target is Kelch domain of human KEAP1 (321-624 aa) (Homo sapiens (Human), UniProt Q14145). The test can be described thus: KEAP1 KELCH ThermoFluor binding assay.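 Further: Ligand-induced melting temperature shift of E. coli-expressed KEAP1 Kelch protein, Kd estimated from concentration-response curves of ΔTm.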 Conditions: KEAP Kelch […], 1,8-ANS, pH 7.0, average of results obtained, read-out: Tf Kd. Background: DSF heats the sample and reads unfolding from a dye or from intrinsic fluorescence.
Sequence of Kelch domain of human KEAP1 (321-624 aa) (Q14145 321-624): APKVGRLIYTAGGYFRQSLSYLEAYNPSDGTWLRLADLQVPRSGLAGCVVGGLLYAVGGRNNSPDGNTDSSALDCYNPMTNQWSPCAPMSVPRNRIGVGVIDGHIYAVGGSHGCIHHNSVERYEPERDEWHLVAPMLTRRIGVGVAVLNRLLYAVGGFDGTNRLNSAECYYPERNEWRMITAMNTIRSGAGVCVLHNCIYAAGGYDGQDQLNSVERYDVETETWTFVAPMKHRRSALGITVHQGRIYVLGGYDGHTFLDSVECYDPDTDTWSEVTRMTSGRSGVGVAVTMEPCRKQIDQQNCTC

Consider `Cc1ccc([C@H](c2ccn3c(C(F)(F)F)nnc3c2C)C(C)(C)C(=O)O)nc1CN1CC2(CCOCC2)Oc2nc(OCCN3CCOCC3)ccc2S1(=O)=O` (single isomer, unassigned) [Example 326, (*R)-2,2-Dimethyl-3-(8-methyl-3-(trifluoromethyl)-[1,2,4]triazolo[4,3-a]pyridin-7-yl)-3-(5-methyl-6-((7′-(2-morpholinoethoxy)-1′,1′-dioxido-2,3,5,6-tetrahydrospiro[pyran-4,4′-pyrido[2,3-b][1,4,5]oxathiazepin]-2′(3′H)-yl)methyl)pyridin-2-yl)propanoic Acid], for which the concentration for a half-maximal effect (EC50) in test [1] stood at 4.6 µM. Moreover, the Kd in test [2] was found to be 3.24 µM.

Turning to `Cc1ccc([C@@H](c2ccc3c(nnn3CC3CC3)c2C)C(C)(C)C(=O)O)nc1CN1CC2(CCOCC2)Oc2nc(OCCN3CCOCC3)ccc2S1(=O)=O` (single isomer, unassigned) [Example 328, (*S)-3-(1-(Cyclopropylmethyl)-4-methyl-1H-benzo[d][1,2,3]triazol-5-yl)-2,2-dimethyl-3-(5-methyl-6-((7′-(2-morpholinoethoxy)-1′,1′-dioxido-2,3,5,6-tetrahydrospiro[pyran-4,4′-pyrido[2,3-b][1,4,5]oxathiazepin]-2′(3′H)-yl)methyl)pyridin-2-yl)propanoic Acid], the midpoint of the response in test [1], the EC50, lay at 0.0033 µM. Further, the dissociation constant Kd in test [2] is less than 0.001 µM.

As for `Cc1ccc([C@H](c2ccc3c(nnn3CC3CC3)c2C)C(C)(C)C(=O)O)nc1CN1CC2(CCOCC2)Oc2nc(OCCN3CCOCC3)ccc2S1(=O)=O` (single isomer, unassigned) [Example 329, (*R)-3-(1-(Cyclopropylmethyl)-4-methyl-1H-benzo[d][1,2,3]triazol-5-yl)-2,2-dimethyl-3-(5-methyl-6-((7′-(2-morpholinoethoxy)-1′,1′-dioxido-2,3,5,6-tetrahydrospiro[pyran-4,4′-pyrido[2,3-b][1,4,5]oxathiazepin]-2′(3′H)-yl)methyl)pyridin-2-yl)propanoic Acid], in test [1], the half-maximal effective concentration (EC50) was 1.9 µM. The Kd in test [2] worked out at 1.88 µM.

Consider `Cc1cnc2c(c1)S(=O)(=O)N(Cc1cc([C@@H](c3cc4cc(C)nnc4n3C)C(C)(C)C(=O)O)ccc1C)CC1(CC1)O2` (single isomer, unassigned) [Example 330, (*S)-3-(3,7-Dimethyl-7H-pyrrolo[2,3-c]pyridazin-6-yl)-2,2-dimethyl-3-(4-methyl-3-((8′-methyl-1′,1′-dioxidospiro[cyclopropane-1,4′-pyrido[2,3-b][1,4,5]oxathiazepin]-2′(3′H)-yl)methyl)phenyl)propanoic Acid], for which the EC50 in test [1] amounted to 7.52 µM. In test [2], the Kd turned out to be 1.59 µM.

In test [1], `Cc1cnc2c(c1)S(=O)(=O)N(Cc1cc([C@H](c3cc4cc(C)nnc4n3C)C(C)(C)C(=O)O)ccc1C)CC1(CC1)O2` (single isomer, unassigned) [Example 331, (*R)-3-(3,7-Dimethyl-7H-pyrrolo[2,3-c]pyridazin-6-yl)-2,2-dimethyl-3-(4-methyl-3-((8′-methyl-1′,1′-dioxidospiro[cyclopropane-1,4′-pyrido[2,3-b][1,4,5]oxathiazepin]-2′(3′H)-yl)methyl)phenyl)propanoic Acid] returned a 50% effective concentration (EC50) of 0.0171 µM. Also, in test [2], the dissociation constant (Kd) was less than 0.001 µM.

As to `Cc1cnc2c(c1)S(=O)(=O)N(Cc1cc([C@@H](c3ccn4c(C(F)F)nnc4c3C)C(C)(C)C(=O)O)ncc1C)CC1(CC1)O2` (single isomer, unassigned) [Example 332, (*S)-3-(3-(Difluoromethyl)-8-methyl-[1,2,4]triazolo[4,3-a]pyridin-7-yl)-2,2-dimethyl-3-(5-methyl-4-((8′-methyl-1′,1′-dioxidospiro[cyclopropane-1,4′-pyrido[2,3-b][1,4,5]oxathiazepin]-2′(3′H)-yl)methyl)pyridin-2-yl)propanoic acid], in test [1], the concentration for a half-maximal effect (EC50) worked out at 0.0256 µM. In addition, the equilibrium dissociation constant (Kd) in test [2] was less than 0.001 µM.

With `Cc1cnc2c(c1)S(=O)(=O)N(Cc1cc([C@H](c3ccn4c(C(F)F)nnc4c3C)C(C)(C)C(=O)O)ncc1C)CC1(CC1)O2` (single isomer, unassigned) [Example 333, (*R)-3-(3-(difluoromethyl)-8-methyl-[1,2,4]triazolo[4,3-a]pyridin-7-yl)-2,2-dimethyl-3-(5-methyl-4-((8′-methyl-1′,1′-dioxidospiro[cyclopropane-1,4′-pyrido[2,3-b][1,4,5]oxathiazepin]-2′(3′H)-yl)methyl)pyridin-2-yl)propanoic Acid], a half-maximal response in test [1] (EC50) required 3.98 µM. For the same molecule, the Kd in test [2] amounted to 1.72 µM.

For the molecule `Cc1cnc2c(c1)S(=O)(=O)N(Cc1nc([C@@H](c3ccn4c(C(F)F)nnc4c3C)C(C)(C)C(=O)O)ccc1C)CC1(CC1)O2` (single isomer, unassigned) [Example 334, (*S)-3-(3-(Difluoromethyl)-8-methyl-[1,2,4]triazolo[4,3-a]pyridin-7-yl)-2,2-dimethyl-3-(5-methyl-6-((8′-methyl-1′,1′-dioxidospiro[cyclopropane-1,4′-pyrido[2,3-b][1,4,5]oxathiazepin]-2′(3′H)-yl)methyl)pyridin-2-yl)propanoic Acid], the EC50 in test [1] was determined as 0.0052 µM. The Kd in test [2] is less than 0.001 µM.

Regarding `Cc1cnc2c(c1)S(=O)(=O)N(Cc1nc([C@H](c3ccn4c(C(F)F)nnc4c3C)C(C)(C)C(=O)O)ccc1C)CC1(CC1)O2` (single isomer, unassigned) [Example 335, (*R)-3-(3-(Difluoromethyl)-8-methyl-[1,2,4]triazolo[4,3-a]pyridin-7-yl)-2,2-dimethyl-3-(5-methyl-6-((8′-methyl-1′,1′-dioxidospiro[cyclopropane-1,4′-pyrido[2,3-b][1,4,5]oxathiazepin]-2′(3′H)-yl)methyl)pyridin-2-yl)propanoic Acid], in test [1], the response was half-maximal at 4.62 µM (EC50). The dissociation constant Kd in test [2] amounted to 2.44 µM.

`Cc1ccc([C@H](c2ccn3c(C(F)(F)F)nnc3c2C)C(C)(C)C(=O)O)cc1CN1CC2(CCNCC2)Oc2ncccc2S1(=O)=O` (single isomer, unassigned) [Example 337, (*R)-3-(3-((1′,1′-Dioxidospiro[piperidine-4,4′-pyrido[2,3-b][1,4,5]oxathiazepin]-2′(3′H)-yl)methyl)-4-methylphenyl)-2,2-dimethyl-3-(8-methyl-3-(trifluoromethyl)-[1,2,4]triazolo[4,3-a]pyridin-7-yl)propanoic Acid] had an EC50 in test [1] greater than 0.02 µM. For the same molecule, the equilibrium dissociation constant (Kd) in test [2] was greater than 10 µM.

Take `Cc1ccc([C@@H](c2ccn3c(C(F)(F)F)nnc3c2C)C(C)(C)C(=O)O)cc1CN1CC2(CNC2)Oc2ncccc2S1(=O)=O` (single isomer, unassigned) [Example 338, (*S)-3-(3-((1′,1′-Dioxidospiro[azetidine-3,4′-pyrido[2,3-b][1,4,5]oxathiazepin]-2′(3′H)-yl)methyl)-4-methylphenyl)-2,2-dimethyl-3-(8-methyl-3-(trifluoromethyl)-[1,2,4]triazolo[4,3-a]pyridin-7-yl)propanoic Acid]: the EC50 in test [1] was found to be 0.0131 µM. Also, the dissociation constant (Kd) in test [2] is less than 0.001 µM.

In turn, `Cc1ccc([C@H](c2ccn3c(C(F)(F)F)nnc3c2C)C(C)(C)C(=O)O)cc1CN1CC2(CNC2)Oc2ncccc2S1(=O)=O` (single isomer, unassigned) [Example 339, (*R)-3-(3-((1′,1′-Dioxidospiro[azetidine-3,4′-pyrido[2,3-b][1,4,5]oxathiazepin]-2′(3′H)-yl)methyl)-4-methylphenyl)-2,2-dimethyl-3-(8-methyl-3-(trifluoromethyl)-[1,2,4]triazolo[4,3-a]pyridin-7-yl)propanoic Acid] returned a concentration giving a half-maximal response (EC50) in test [1] of 6.32 µM. In addition, the Kd in test [2] is 80.2 µM.

Broadly, the EC50 is the concentration at which the effect is half-maximal. Low values mean higher potency in that assay, high ones lower potency in that assay. Broadly, the Kd is a measure of binding affinity in units of concentration.
